Laboratory results reported in ChEMBL document CHEMBL4800729 (2021).

Tests used:
[1] = target: Serine/threonine-protein kinase 24 (Homo sapiens) (UniProt Q9Y6E0); test: MST3(h) Millipore kinase panel; conditions: Compound concentration 1.0 uM
[2] = target: Serine/threonine-protein kinase WNK2 (Homo sapiens) (UniProt Q9Y3S1); test: WNK2(h) Millipore kinase panel; conditions: Compound concentration 1.0 uM
[3] = target: SRSF protein kinase 2 (Homo sapiens) (UniProt P78362); test: SRPK2(h) Millipore kinase panel; conditions: Compound concentration 1.0 uM
[4] = target: Serine/threonine-protein kinase tousled-like 1 (Homo sapiens) (UniProt Q9UKI8); test: TLK1(h) Millipore kinase panel; conditions: Compound concentration 1.0 uM
[5] = target: Serine/threonine-protein kinase pim-3 (Homo sapiens) (UniProt Q86V86); test: Pim-3(h) Millipore kinase panel; conditions: Compound concentration 1.0 uM
[6] = target: Misshapen-like kinase 1 (Homo sapiens) (UniProt Q8N4C8); test: MINK(h) Millipore kinase panel; conditions: Compound concentration 1.0 uM
Sequence of Misshapen-like kinase 1 (Homo sapiens) (Q8N4C8 whole entry, looked up): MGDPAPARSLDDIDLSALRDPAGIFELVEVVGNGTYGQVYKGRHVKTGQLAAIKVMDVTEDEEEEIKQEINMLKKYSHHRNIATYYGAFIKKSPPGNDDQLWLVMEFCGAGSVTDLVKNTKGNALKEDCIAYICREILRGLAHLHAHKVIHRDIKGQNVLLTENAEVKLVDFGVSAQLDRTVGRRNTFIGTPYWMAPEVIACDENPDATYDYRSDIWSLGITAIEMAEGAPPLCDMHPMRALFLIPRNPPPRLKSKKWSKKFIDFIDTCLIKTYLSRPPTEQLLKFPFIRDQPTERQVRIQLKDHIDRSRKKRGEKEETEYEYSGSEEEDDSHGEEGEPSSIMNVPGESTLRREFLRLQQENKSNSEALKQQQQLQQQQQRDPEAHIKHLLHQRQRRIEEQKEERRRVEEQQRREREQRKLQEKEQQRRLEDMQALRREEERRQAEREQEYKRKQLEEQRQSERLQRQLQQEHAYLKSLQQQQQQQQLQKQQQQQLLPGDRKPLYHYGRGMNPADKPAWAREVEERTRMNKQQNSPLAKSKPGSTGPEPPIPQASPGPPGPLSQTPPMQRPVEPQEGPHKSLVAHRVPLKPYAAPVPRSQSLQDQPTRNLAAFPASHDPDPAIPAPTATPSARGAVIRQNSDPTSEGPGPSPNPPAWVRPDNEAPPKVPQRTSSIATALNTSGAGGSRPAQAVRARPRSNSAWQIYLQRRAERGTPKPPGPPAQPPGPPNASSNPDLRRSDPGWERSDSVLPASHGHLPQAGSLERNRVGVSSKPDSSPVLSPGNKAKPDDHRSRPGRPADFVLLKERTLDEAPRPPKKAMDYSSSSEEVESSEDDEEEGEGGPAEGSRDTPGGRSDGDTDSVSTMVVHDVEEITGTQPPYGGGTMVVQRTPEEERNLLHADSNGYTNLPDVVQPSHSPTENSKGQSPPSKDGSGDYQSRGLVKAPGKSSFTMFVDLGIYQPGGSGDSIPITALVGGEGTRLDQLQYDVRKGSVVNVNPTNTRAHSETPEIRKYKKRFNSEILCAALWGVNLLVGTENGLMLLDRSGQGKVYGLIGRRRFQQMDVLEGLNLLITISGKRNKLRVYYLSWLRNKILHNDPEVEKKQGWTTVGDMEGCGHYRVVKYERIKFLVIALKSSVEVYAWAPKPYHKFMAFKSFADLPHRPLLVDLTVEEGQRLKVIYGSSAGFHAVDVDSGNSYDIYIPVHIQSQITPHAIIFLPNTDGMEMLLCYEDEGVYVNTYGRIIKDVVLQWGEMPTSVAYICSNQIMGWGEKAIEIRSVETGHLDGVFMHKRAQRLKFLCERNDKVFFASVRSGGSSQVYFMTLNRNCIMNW

[7] = target: Protein-tyrosine kinase 6 (Homo sapiens) (UniProt Q13882); test: BRK(h) Millipore kinase panel; conditions: Compound concentration 1.0 uM
[8] = target: Testis-specific serine/threonine-protein kinase 2 (Homo sapiens) (UniProt Q96PF2); test: TSSK2(h) Millipore kinase panel; conditions: Compound concentration 1.0 uM
[9] = target: Mitogen-activated protein kinase 8 (Homo sapiens) (UniProt P45983); test: JNK1alpha1(h) Millipore kinase panel; conditions: Compound concentration 1.0 uM
[10] = target: Tau-tubulin kinase 2 (Homo sapiens) (UniProt Q6IQ55); test: TTBK2(h) Millipore kinase panel; conditions: Compound concentration 1.0 uM
[11] = target: Vasopressin V1a receptor (Homo sapiens) (UniProt P37288); conditions: Compound concentration 10.0 uM
[12] = target: Tyrosine-protein kinase TXK (Homo sapiens) (UniProt P42681); test: Txk(h) Millipore kinase panel; conditions: Compound concentration 1.0 uM
[13] = target: Insulin receptor (Homo sapiens) (UniProt P06213); test: IR(h) Millipore kinase panel; conditions: Compound concentration 1.0 uM
[14] = target: Serine/threonine-protein kinase Chk1 (Homo sapiens) (UniProt O14757); test: CHK1(h) Millipore kinase panel; conditions: Compound concentration 1.0 uM
[15] = target: 3-hydroxy-3-methylglutaryl-coenzyme A reductase (Homo sapiens) (UniProt P04035); test: Inhibition of HMG-CoA Reductase at compound concentration of 10.0 uM in the Eurofins-Panlabs enzyme assay (Eurofins_assay_124010); set-up: substrate with concentration; conditions: Compound concentration 10.0 uM
[16] = target: D(2) dopamine receptor (Homo sapiens) (UniProt P14416); conditions: Compound concentration 10.0 uM
[17] = target: Serine/threonine-protein kinase 38-like (Homo sapiens) (UniProt Q9Y2H1); test: NDR2(h) Millipore kinase panel; conditions: Compound concentration 1.0 uM
[18] = target: 5-hydroxytryptamine receptor 1D (Homo sapiens) (UniProt P28221); conditions: Compound concentration 10.0 uM
[19] = target: Polyunsaturated fatty acid lipoxygenase ALOX15 (Homo sapiens) (UniProt P16050); test: Inhibition of Lipoxygenase 15-LO at compound concentration of 10.0 uM in the Eurofins-Panlabs enzyme assay (Eurofins_assay_199017); conditions: Compound concentration 10.0 uM
[20] = target: Histamine H3 receptor (Homo sapiens) (UniProt Q9Y5N1); conditions: Compound concentration 10.0 uM
[21] = target: Serine/threonine-protein kinase 4 (Homo sapiens) (UniProt Q13043); test: MST1(h) Millipore kinase panel; conditions: Compound concentration 1.0 uM
[22] = target: 5'-AMP-activated protein kinase catalytic subunit alpha-1 (Homo sapiens) (UniProt Q13131); test: AMPKalpha1(h) Millipore kinase panel; conditions: Compound concentration 1.0 uM
Sequence of 5'-AMP-activated protein kinase catalytic subunit alpha-1 (Homo sapiens) (Q13131 whole entry, looked up): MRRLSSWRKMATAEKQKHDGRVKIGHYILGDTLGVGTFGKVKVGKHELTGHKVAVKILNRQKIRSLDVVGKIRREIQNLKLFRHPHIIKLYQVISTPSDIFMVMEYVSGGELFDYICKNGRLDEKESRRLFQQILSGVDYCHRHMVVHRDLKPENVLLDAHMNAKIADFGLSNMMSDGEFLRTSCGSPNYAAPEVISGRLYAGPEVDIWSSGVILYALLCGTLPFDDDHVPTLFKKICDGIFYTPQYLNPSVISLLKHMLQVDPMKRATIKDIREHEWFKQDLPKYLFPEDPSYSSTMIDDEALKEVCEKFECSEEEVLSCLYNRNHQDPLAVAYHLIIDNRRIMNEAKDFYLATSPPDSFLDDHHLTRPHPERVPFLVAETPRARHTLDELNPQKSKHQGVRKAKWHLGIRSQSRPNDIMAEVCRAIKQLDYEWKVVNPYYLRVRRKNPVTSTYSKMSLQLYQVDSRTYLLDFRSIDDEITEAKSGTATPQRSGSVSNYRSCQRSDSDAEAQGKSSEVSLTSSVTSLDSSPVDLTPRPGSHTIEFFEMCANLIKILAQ

[23] = target: Activated CDC42 kinase 1 (Homo sapiens) (UniProt Q07912); test: ACK1(h) Millipore kinase panel; conditions: Compound concentration 1.0 uM
[24] = target: Serine/threonine-protein kinase 33 (Homo sapiens) (UniProt Q9BYT3); test: STK33(h) Millipore kinase panel; conditions: Compound concentration 1.0 uM
[25] = target: Platelet-derived growth factor receptor alpha (Homo sapiens) (UniProt P16234); test: PDGFRalpha Millipore kinase panel; conditions: Compound concentration 1.0 uM
Sequence of Platelet-derived growth factor receptor alpha (Homo sapiens) (P16234 whole entry): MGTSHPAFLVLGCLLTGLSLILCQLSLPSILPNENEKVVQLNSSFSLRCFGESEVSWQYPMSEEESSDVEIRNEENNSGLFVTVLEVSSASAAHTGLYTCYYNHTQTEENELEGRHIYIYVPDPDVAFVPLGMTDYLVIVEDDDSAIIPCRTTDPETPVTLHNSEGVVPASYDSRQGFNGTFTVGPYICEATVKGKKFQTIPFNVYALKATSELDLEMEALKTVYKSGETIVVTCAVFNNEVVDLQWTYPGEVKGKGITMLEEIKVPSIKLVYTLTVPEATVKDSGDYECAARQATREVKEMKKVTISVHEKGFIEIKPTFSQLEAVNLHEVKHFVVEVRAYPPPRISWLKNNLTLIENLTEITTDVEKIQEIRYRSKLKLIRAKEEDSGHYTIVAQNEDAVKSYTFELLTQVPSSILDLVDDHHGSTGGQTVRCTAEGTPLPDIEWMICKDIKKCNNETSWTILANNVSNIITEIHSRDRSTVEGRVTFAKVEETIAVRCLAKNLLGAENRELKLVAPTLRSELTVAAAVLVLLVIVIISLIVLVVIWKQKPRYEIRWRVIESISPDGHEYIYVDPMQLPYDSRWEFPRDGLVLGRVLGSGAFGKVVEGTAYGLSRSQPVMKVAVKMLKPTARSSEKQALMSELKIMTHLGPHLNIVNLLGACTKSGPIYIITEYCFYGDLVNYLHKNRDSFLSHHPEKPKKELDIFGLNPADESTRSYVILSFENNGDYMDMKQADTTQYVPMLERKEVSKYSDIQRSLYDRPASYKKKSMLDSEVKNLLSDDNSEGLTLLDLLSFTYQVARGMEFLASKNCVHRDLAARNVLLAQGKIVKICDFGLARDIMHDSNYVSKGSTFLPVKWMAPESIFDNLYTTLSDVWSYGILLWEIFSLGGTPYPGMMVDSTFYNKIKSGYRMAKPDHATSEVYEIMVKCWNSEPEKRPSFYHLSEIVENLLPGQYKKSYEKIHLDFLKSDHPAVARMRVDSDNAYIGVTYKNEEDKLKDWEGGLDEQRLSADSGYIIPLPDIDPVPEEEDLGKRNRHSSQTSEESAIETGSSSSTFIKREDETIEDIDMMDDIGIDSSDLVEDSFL

[26] = target: Serine/threonine-protein kinase D2 (Homo sapiens) (UniProt Q9BZL6); test: PKD2(h) Millipore kinase panel; conditions: Compound concentration 1.0 uM
[27] = target: 5-hydroxytryptamine receptor 6 (Homo sapiens, UniProt P50406); conditions: Compound concentration 10.0 uM
[28] = target: Serine/threonine-protein kinase D1 (Homo sapiens) (UniProt Q15139); test: PKCmu(h) Millipore kinase panel; conditions: Compound concentration 1.0 uM
Sequence of Serine/threonine-protein kinase D1 (Homo sapiens) (Q15139 whole entry): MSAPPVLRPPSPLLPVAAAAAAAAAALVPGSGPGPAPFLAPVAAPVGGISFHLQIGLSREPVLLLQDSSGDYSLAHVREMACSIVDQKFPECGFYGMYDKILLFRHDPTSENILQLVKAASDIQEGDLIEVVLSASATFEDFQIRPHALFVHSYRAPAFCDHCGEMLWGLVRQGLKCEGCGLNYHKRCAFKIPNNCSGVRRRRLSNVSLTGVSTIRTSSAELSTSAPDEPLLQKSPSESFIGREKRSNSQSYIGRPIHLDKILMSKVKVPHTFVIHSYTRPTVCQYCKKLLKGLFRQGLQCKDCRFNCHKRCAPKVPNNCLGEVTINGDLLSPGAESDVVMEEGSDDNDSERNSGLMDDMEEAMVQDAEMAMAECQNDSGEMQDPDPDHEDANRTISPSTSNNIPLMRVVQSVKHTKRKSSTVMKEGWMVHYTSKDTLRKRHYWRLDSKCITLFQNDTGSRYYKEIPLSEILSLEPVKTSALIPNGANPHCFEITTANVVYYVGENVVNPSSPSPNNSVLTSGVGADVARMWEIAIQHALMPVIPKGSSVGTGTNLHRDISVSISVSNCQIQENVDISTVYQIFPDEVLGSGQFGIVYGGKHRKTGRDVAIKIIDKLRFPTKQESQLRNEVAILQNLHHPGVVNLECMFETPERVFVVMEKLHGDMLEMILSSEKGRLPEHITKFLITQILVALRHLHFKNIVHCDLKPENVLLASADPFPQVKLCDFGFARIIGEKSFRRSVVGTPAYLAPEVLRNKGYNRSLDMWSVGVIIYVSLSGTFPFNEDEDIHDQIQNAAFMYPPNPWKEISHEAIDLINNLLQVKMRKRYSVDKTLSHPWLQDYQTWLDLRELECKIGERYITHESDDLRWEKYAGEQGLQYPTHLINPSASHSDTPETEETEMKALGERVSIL

[29] = target: Muscarinic acetylcholine receptor M4 (Homo sapiens) (UniProt P08173); conditions: Compound concentration 10.0 uM
[30] = target: Hepatocyte growth factor receptor (Homo sapiens) (UniProt P08581); test: Met(h) Millipore kinase panel; conditions: Compound concentration 1.0 uM
[31] = target: Mitogen-activated protein kinase 1 (Homo sapiens) (UniProt P28482); test: MAPK2(h) Millipore kinase panel; conditions: Compound concentration 1.0 uM
[32] = target: Mitogen-activated protein kinase 9 (Homo sapiens) (UniProt P45984); test: JNK2alpha2(h) Millipore kinase panel; conditions: Compound concentration 1.0 uM
[33] = target: Cyclin-dependent kinase-like 4 (Homo sapiens) (UniProt Q5MAI5); test: CDKL4(h) Millipore kinase panel; conditions: Compound concentration 1.0 uM
[34] = target: Testis-specific serine/threonine-protein kinase 4 (Homo sapiens) (UniProt Q6SA08); test: TSSK4(h) Millipore kinase panel; conditions: Compound concentration 1.0 uM
[35] = target: Tyrosine-protein kinase Lck (Homo sapiens) (UniProt P06239); test: Lck(h) activated Millipore kinase panel; conditions: Compound concentration 1.0 uM
[36] = target: Serine/threonine-protein kinase pim-2 (Homo sapiens) (UniProt Q9P1W9); test: Pim-2(h) Millipore kinase panel; conditions: Compound concentration 1.0 uM
[37] = target: Glutamate receptor 2 (Homo sapiens) (UniProt P42262); conditions: Rattus norvegicus; Compound concentration 10.0 uM
[38] = target: Serine/threonine-protein kinase Nek1 (Homo sapiens) (UniProt Q96PY6); test: NEK1(h) Millipore kinase panel; conditions: Compound concentration 1.0 uM
[39] = target: Rho-associated protein kinase 2 (Homo sapiens) (UniProt O75116); test: ROCK-II(h) Millipore kinase panel; conditions: Compound concentration 1.0 uM
[40] = target: Transcription initiation factor TFIID subunit 1-like (Homo sapiens) (UniProt Q8IZX4); test: TAF1L(h) Millipore kinase panel; conditions: Compound concentration 1.0 uM
[41] = target: Serine/threonine-protein kinase 32B (Homo sapiens) (UniProt Q9NY57); test: STK32B(h) Millipore kinase panel; conditions: Compound concentration 1.0 uM
[42] = target: Alpha-2A adrenergic receptor (Homo sapiens) (UniProt P08913); conditions: Compound concentration 10.0 uM
[43] = target: Serine/threonine-protein kinase B-raf (Homo sapiens) (UniProt P15056); test: BRaf(h) Millipore kinase panel; conditions: Compound concentration 1.0 uM
[44] = target: 3-phosphoinositide-dependent protein kinase 1 (Homo sapiens) (UniProt O15530); test: PDK1(h) Millipore kinase panel; conditions: Compound concentration 1.0 uM
Sequence of 3-phosphoinositide-dependent protein kinase 1 (Homo sapiens) (O15530 whole entry, looked up): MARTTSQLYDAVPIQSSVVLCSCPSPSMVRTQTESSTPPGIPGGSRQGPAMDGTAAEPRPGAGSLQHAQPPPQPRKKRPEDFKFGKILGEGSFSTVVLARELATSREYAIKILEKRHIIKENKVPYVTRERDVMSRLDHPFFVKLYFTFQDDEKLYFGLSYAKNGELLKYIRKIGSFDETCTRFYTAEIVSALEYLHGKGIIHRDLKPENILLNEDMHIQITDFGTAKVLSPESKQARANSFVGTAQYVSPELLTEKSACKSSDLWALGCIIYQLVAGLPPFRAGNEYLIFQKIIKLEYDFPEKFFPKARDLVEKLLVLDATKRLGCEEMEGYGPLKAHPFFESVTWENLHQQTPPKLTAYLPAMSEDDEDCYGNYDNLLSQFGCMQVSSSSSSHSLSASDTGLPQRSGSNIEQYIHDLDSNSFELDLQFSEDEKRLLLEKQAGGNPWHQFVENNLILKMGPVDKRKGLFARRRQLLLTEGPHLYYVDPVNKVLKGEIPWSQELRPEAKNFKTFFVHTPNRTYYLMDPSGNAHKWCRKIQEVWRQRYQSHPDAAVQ

[45] = target: Sodium-dependent serotonin transporter (Homo sapiens) (UniProt P31645); conditions: Compound concentration 10.0 uM
[46] = target: Serine/threonine-protein kinase TAO1 (Homo sapiens) (UniProt Q7L7X3); test: TAO1(h) Millipore kinase panel; conditions: Compound concentration 1.0 uM
[47] = target: Serine/threonine-protein kinase MRCK gamma (Homo sapiens) (UniProt Q6DT37); test: MRCKgamma(h) Millipore kinase panel; conditions: Compound concentration 1.0 uM
[48] = target: Testis-specific serine/threonine-protein kinase 1 (Homo sapiens) (UniProt Q9BXA7); test: TSSK1(h) Millipore kinase panel; conditions: Compound concentration 1.0 uM
Sequence of Testis-specific serine/threonine-protein kinase 1 (Homo sapiens) (Q9BXA7 whole entry): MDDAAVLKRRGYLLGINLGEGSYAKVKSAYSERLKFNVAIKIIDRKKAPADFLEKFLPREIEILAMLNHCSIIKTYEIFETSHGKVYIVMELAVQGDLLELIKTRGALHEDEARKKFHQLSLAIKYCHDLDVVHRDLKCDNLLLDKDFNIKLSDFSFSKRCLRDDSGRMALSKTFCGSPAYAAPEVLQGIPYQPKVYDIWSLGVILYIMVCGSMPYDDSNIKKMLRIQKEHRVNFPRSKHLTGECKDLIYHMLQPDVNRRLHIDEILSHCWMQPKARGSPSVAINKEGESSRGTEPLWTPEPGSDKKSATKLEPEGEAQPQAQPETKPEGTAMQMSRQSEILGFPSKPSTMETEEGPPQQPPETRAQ

Measured: inhibition

CC[C@@H](Nc1c(C#N)c(-c2ccc(-c3cccc(C)c3F)cc2)nc2cnccc12)C(=O)O [BAY-091]
inactive: [1] 1.03% | [2] 3.31% | [3] -8.51% | [4] -0.87% | [5] 1.67% | [6] 3.07% | [7] 8.07% | [8] -1.97% | [9] 4.24% | [10] 1.17% | [11] -3% | [12] -2.9% | [13] -2.92% | [14] 4.56% | [15] -7% | [16] 13.8% | [17] 5.88% | [18] 21.2% | [19] 20% | [20] -3.06% | [21] 20.6% | [22] -1.91% | [23] 10.5% | [24] 2.82% | [25] 9.33% | [26] 4.37% | [27] -2.99% | [28] 12.7% | [29] 6% | [30] 2.36% | [31] 7.74% | [32] -1.41% | [33] 12.6% | [34] 24% | [35] -3.67% | [36] 6.42% | [37] -4% | [38] 24.4% | [39] -0.6% | [40] -3.49% | [41] 14.9% | [42] 5.7% | [43] 23.5% | [44] -8.72% | [45] 10% | [46] 1.92% | [47] 5.46% | [48] 14.2%
